A short description of data set [1]: Dynamic vapor sorption (DVS), gravimetric moisture sorption. It counts as physicochemical. As to conditions: at 80% Relative Humidity, 25° C. On the procedure:
Dynamic Vapor Sorption (DVS) were collected conducted using an SMS DVS Advantage 1 system. For each sample analyzed approximately 10 mg of material was transferred into the DVS instrument and recorded the weight change with respect to the atmospheric humidity at 25° C. using the following parameters: Equilibrium dm/dt: 0.01%/min, (for min: 10 min and max: 180 min); drying setting were 0% RH for 120 min; RH (%) measurement step at 10% and RH (%) measurement step scope of 0-90-0%.

The format of data set [2] is physicochemical.
The format of data set [3] is physicochemical. As to conditions: 1 w. How it is done:
For each salt, approximately 5 mg compound was added into an 8 mL glass vial with a multi-hole aluminum foil cap, and kept at 60° C., 40° C./75% RH for 1 week. […] Appearance by visual observation were recorded followed by purity assessment and XPRD data collection on the residual solids.

Several values for one entry are separate records, joined by “and”; a condition that tells them apart may be missing. Equal values may be shown once. Read-outs that look alike come from different tables or passages of the source.

For `COCC1(O)CCC2(C)C(CCC3C2CCC2(C)C(C(=O)Cn4ccnc4)CCC32)C1.Nc1ccc(C(=O)O)c(O)c1` (stereo not shown) [Compound 1 P-Aminosalicylate (Form A)], the gravimetric moisture sorption entry in data set [1] was “about 4.0 % (by weight)”.
On to `COCC1(O)CCC2(C)C(CCC3C2CCC2(C)C(C(=O)Cn4ccnc4)CCC32)C1.O=C(O)c1ccc2ccccc2c1O` (stereo not shown), for which the gravimetric moisture sorption entry in data set [1] is “about 4.6 % (by weight)”.
Regarding `COC(=O)c1ccc2c(c1)NC(=O)/C2=C(\Nc1ccc(N(C)C(=O)CN2CCN(C)CC2)cc1)c1ccccc1.Cl` [Compound 1 Hydrochloride (Form B)], the gravimetric moisture sorption entry in data set [1] is listed as “about 2.9 % (by weight)”.
Take `COC(=O)c1ccc2c(c1)NC(=O)/C2=C(\Nc1ccc(N(C)C(=O)CN2CCN(C)CC2)cc1)c1ccccc1.Cl` [Compound 1 Hydrochloride (Form C)]: the gravimetric moisture sorption result in data set [1] was “about 0.7 % (by weight)”.
For `COC[C@@]1(O)CC[C@@]2(C)[C@@H](CC[C@@H]3[C@@H]2CC[C@]2(C)[C@@H](C(=O)Cn4ccnc4)CC[C@@H]32)C1.O=S(=O)(O)c1ccccc1` [Compound 1 Besylate (Form A)], the gravimetric moisture sorption entry in data set [1] was “about 4.0 % (by weight)”.
Same read-out and setting: the entry for `COCC1(O)CCC2(C)C(CCC3C2CCC2(C)C(C(=O)Cn4ccnc4)CCC32)C1.O=C(O)CC(O)C(=O)O` [Compound 1 L-Malate (Form B)] is “about 3.5 % (by weight)”; for `COCC1(O)CCC2(C)C(CCC3C2CCC2(C)C(C(=O)Cn4ccnc4)CCC32)C1.O=CC(O)C(O)C(O)C(O)C(=O)O` [Compound 1 D-Glucuronate (Form A)] it is “about 1.4 % (by weight)”.
Same read-out and setting: the entry for `COC[C@@]1(O)CC[C@@]2(C)[C@@H](CC[C@@H]3[C@@H]2CC[C@]2(C)[C@@H](C(=O)Cn4ccnc4)CC[C@@H]32)C1.O=S(=O)(O)O` [Compound 1 Sulfate (Form A)] is “about 6.2 % (by weight)”.
Still for that read-out and setting: the entry for `COC[C@@]1(O)CC[C@@]2(C)[C@@H](CC[C@@H]3[C@@H]2CC[C@]2(C)[C@@H](C(=O)Cn4ccnc4)CC[C@@H]32)C1.O=S(=O)(O)NC1CCCCC1` [Compound 1 Cyclamate (Form A)] is “about 7.3 % (by weight)”.
As for `COC[C@@]1(O)CC[C@@]2(C)[C@@H](CC[C@@H]3[C@@H]2CC[C@]2(C)[C@@H](C(=O)Cn4ccnc4)CC[C@@H]32)C1.O=S(=O)(O)CCO` [Compound 1 Isethionate (Form A)], the gravimetric moisture sorption entry in data set [1] is on record as “about 4.9 % (by weight)”.
As to `COCC1(O)CCC2(C)C(CCC3C2CCC2(C)C(C(=O)Cn4ccnc4)CCC32)C1.Cl` (stereo not shown) [Compound 1 Hydrochloride (Form A)], the gravimetric moisture sorption result in data set [1] is on record as “about 3.6 % (by weight)”.
Still for that read-out and setting: the entry for `COCC1(O)CCC2(C)C(CCC3C2CCC2(C)C(C(=O)Cn4ccnc4)CCC32)C1.O=C(O)c1cc(O)ccc1O` (stereo not shown) [Compound 1 Gentisate (Form A)] is “about 3.1 % (by weight)”; for `COC[C@@]1(O)CC[C@@]2(C)[C@@H](CC[C@@H]3[C@@H]2CC[C@]2(C)[C@@H](C(=O)Cn4ccnc4)CC[C@@H]32)C1.O=C(O)C(O)C(O)C(=O)O` [Compound 1 L(+)-Tartrate (Form A)] it is “about 1.6 % (by weight)”; for `CCS(=O)(=O)O.COCC1(O)CCC2(C)C(CCC3C2CCC2(C)C(C(=O)Cn4ccnc4)CCC32)C1` (stereo not shown) [Compound 1 Ethanesulfonate (Form A)] it is “about 1.4 % (by weight)”.
Consider `COCC1(O)CCC2(C)C(CCC3C2CCC2(C)C(C(=O)Cn4ccnc4)CCC32)C1.Cc1ccc(S(=O)(=O)O)cc1` (stereo not shown) [Compound 1 Tosylate (Form A)], for which the gravimetric moisture sorption result in data set [1] was “about 1.5 % (by weight)”.
Same read-out and setting: the entry for `COCC1(O)CCC2(C)C(CCC3C2CCC2(C)C(C(=O)Cn4ccnc4)CCC32)C1.O=C1OC(C(O)CO)C(O)=C1O` (stereo not shown) [Compound 1 Ascorbate (Form A)] is “about 5.7 % (by weight)”; for `COC[C@@]1(O)CC[C@@]2(C)[C@@H](CC[C@@H]3[C@@H]2CC[C@]2(C)[C@@H](C(=O)Cn4ccnc4)CC[C@@H]32)C1.O=S(=O)(O)c1ccc2ccccc2c1` [Compound 1 Napsylate (Form A)] it is “about 3.9 % (by weight)”.
Turning to `COC[C@@]1(O)CC[C@@]2(C)[C@@H](CC[C@@H]3[C@@H]2CC[C@]2(C)[C@@H](C(=O)Cn4ccnc4)CC[C@@H]32)C1.O=S(=O)(O)c1ccccc1` [Besylate (Form A)], the Final purity was determined as 98.7 in data set [2] (1.2 million lux-hrs), 98.4 in data set [2] (Dark control), 98.3 in data set [3] (40° C./75% RH) and 98.3 in data set [3] (60° C.). Moreover, the XRPD patterns entry in data set [2] (1.2 million lux-hrs), in data set [2] (Dark control), in data set [3] (40° C./75% RH) and in data set [3] (60° C.) was “Form A” throughout.
As for `COC[C@@]1(O)CC[C@@]2(C)[C@@H](CC[C@@H]3[C@@H]2CC[C@]2(C)[C@@H](C(=O)Cn4ccnc4)CC[C@@H]32)C1` [Compound 1, 3α-Hydroxy-3β-methoxymethyl-21-(1′-imidazolyl)-5α-pregnan-20-one], the Final purity was 97.9 and 99.2 and 97.92 in data set [2] (1.2 million lux-hrs); 98.3 and 99.1 in data set [2] (Dark control); 98.2 and 99.1 and 98.23 in data set [3] (40° C./75% RH); 98.2 and 99.3 and 98.15 in data set [3] (60° C.). The XRPD pattern entry in data set [2] (1.2 million lux-hrs), in data set [2] (Dark control), in data set [3] (40° C./75% RH) and in data set [3] (60° C.) was “Pattern A” in each case. Besides, the XRPD patterns entry in data set [2] (1.2 million lux-hrs), in data set [2] (Dark control), in data set [3] (40° C./75% RH) and in data set [3] (60° C.) was “Pattern A” in each case.
On to `COCC1(O)CCC2(C)C(CCC3C2CCC2(C)C(C(=O)Cn4ccnc4)CCC32)C1.O=C(O)C(O)C(O)C(=O)O` (stereo not drawn) [Compound 1 L(+)-Tartrate (Form B)], for which the gravimetric moisture sorption result in data set [1] is “about 1.7 % (by weight)”.
With `COC[C@@]1(O)CC[C@@]2(C)[C@@H](CC[C@@H]3[C@@H]2CC[C@]2(C)[C@@H](C(=O)Cn4ccnc4)CC[C@@H]32)C1.O=C(O)C[C@H](O)C(=O)O` [L-Malate (Form B)], the Final purity came out at 97.6 in data set [2] (1.2 million lux-hrs), 97.5 in data set [2] (Dark control), 98.5 in data set [3] (40° C./75% RH) and 97.8 in data set [3] (60° C.). The XRPD patterns result in data set [2] (1.2 million lux-hrs), in data set [2] (Dark control) and in data set [3] (60° C.) was “Form B” throughout.
`COCC1(O)CCC2(C)C(CCC3C2CCC2(C)C(C(=O)Cn4ccnc4)CCC32)C1.CS(=O)(=O)O` (stereo not shown) [Mesylate (Form A)]: the Final purity came to 99.3 in data set [2] (1.2 million lux-hrs), 99.4 in data set [2] (Dark control), 99.4 in data set [3] (40° C./75% RH) and 99.4 in data set [3] (60° C.). The XRPD patterns result in data set [2] (1.2 million lux-hrs) is given as “Form A”; in data set [2] (Dark control), “Form A”; in data set [3] (40° C./75% RH), “Form D”; in data set [3] (60° C.) it was “Form A”.
On to `COC[C@@]1(O)CC[C@@]2(C)[C@@H](CC[C@@H]3[C@@H]2CC[C@]2(C)[C@@H](C(=O)Cn4ccnc4)CC[C@@H]32)C1.O=C(O)C(=O)O` [Oxalate (Form A)], for which the Final purity in data set [2] (1.2 million lux-hrs) worked out at 98.2; in data set [2] (Dark control) it was 98.9; in data set [3] (40° C./75% RH), 98.4; in data set [3] (60° C.), 98.3. The XRPD patterns result in data set [2] (1.2 million lux-hrs), in data set [2] (Dark control), in data set [3] (40° C./75% RH) and in data set [3] (60° C.) was “Form A” each time.

Source of the values: patent publication US10927141B2 (priority 2018, dated 2021).
